From patent US20260199323A1, “LIGAND COMPOUNDS FOR E3 UBIQUITIN LIGASE, PROTEIN DEGRADERS DEVELOPED ON BASIS OF LIGAND COMPOUNDS, AND USES THEREOF” (GLUETACS THERAPEUTICS (SHANGHAI) CO., LTD., priority 2021, published 2026) come the findings set out here.

For assay [1], the system named is HCC827. In words: CCK-8 tumor cell proliferation, HCC827. The format is cell-based, Human. To be noted: for IC50 for inhibiting the proliferation of tumor cells, HCC827: Table 11, designed based on EGFR inhibitors, 96 h; for IC50: Homo sapiens, Table 15, ALK inhibitor based, HCC827, read-out: IC50 inhibiting proliferation of tumor cells, HCC827. As to the method: The tumor cells used herein were cultured in a cell culture medium listed in table 4 at 37° C. in an incubator with 5% CO2.
(§1) After 24 h, 100 μL of the inoculated cells were treated with 0.5 μL of the compounds of the present disclosure (including the compounds in Tables 1 and 3, and compounds of examples) at 10 different successively decreasing concentrations (starting at the highest concentration of 10 μM; 5-fold serial dilutions). After the cells were treated with the compounds of the present disclosure for a period of time, the cell viability detection reagent was added to the culture medium for cell viability assessment according to the instructions provided with the CCK-8 kit. […] The growth inhibition of the compounds of the present disclosure on cells was plotted by Prism Graphpad software, and the IC50 values of the compounds of the present disclosure were calculated therefrom.

The test system of assay [2] is Hep3B2.7-1. Put plainly: CCK-8 tumor cell proliferation, Hep3B2.7-1. The format is cell-based, Human. To be noted: Homo sapiens. As to the method: (§2) The tumor cells used herein were cultured in a cell culture medium listed in table 4 at 37° C. in an incubator with 5% CO2. Prior to experimentation, all cells used were correctly identified by STR profiling, and tested negative for mycoplasma through routine screenings.
as §1, with “IC50 values of the compounds of the present disclosure (including the compounds in Tables 1 and 3, and compounds of examples) were measured using the Meilun Cell Counting Kit-8 kit from Dalian Meilun Biotech Co., Ltd. Assay details are as follows: tumor cells were seeded in a 96-well plate at a density listed in Table 5. After 24” for “After 24”

Assay [3] concerns Jurkat. Put plainly: CCK-8 tumor cell proliferation, Jurkat. The assay is classed as cell-based, Human. To be noted: Homo sapiens, read-out: IC50 inhibiting proliferation of tumor cells, Jurkat. Put shortly:
(§3)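 IC50 derived from CCK-8 cell viability after compound treatment. Dilution series: 10 concentrations, 5-fold apart, from 10 μM. Compound added 24 h post-seeding; culture at 37 °C in 5% CO2.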

For assay [4], the system named is Kasumi-1. Put plainly: CCK-8 tumor cell proliferation, Kasumi-1. The format is cell-based, Human. To be noted: Homo sapiens, Kasumi-1, read-out: IC50 inhibiting proliferation of tumor cells, Kasumi-1. As to the method: as §2
as §1, with “IC50 values of the compounds of the present disclosure (including the compounds in Tables 1 and 3, and compounds of examples) were measured using the Meilun Cell Counting Kit-8 kit from Dalian Meilun Biotech Co., Ltd. Assay details are as follows: tumor cells were seeded in a 96-well plate at a density listed in Table 5. After 24” for “After 24”

For assay [5], the system named is PC-9. Put plainly: CCK-8 tumor cell proliferation, PC-9. The assay is classed as cell-based, Human. As to conditions: Homo sapiens; Table 15, ALK inhibitor based; PC-9; read-out: IC50 inhibiting proliferation of tumor cells, PC-9.
The subject of assay [6] is SR. Put plainly: CCK-8 tumor cell proliferation, SR. To be noted: Homo sapiens; Table 15, ALK inhibitor based; SR; read-out: IC50 inhibiting proliferation of tumor cells, SR. The assay is classed as cell-based, Human. Put shortly: as §3
Assay [7] concerns MDA-MB-231. Put plainly: CCK-8 tumor cell proliferation, MDA-MB-231. As to conditions: Homo sapiens; Table 15, ALK inhibitor based; MDA-MB-231; read-out: IC50 inhibiting proliferation of tumor cells, MDA-MB-231. The format is cell-based, Human. In outline: as §3
For assay [8], the system named is Mino. Put plainly: CCK-8 tumor cell proliferation, Mino. As to conditions: Homo sapiens; Table 15, ALK inhibitor based; Mino; read-out: IC50 inhibiting proliferation of tumor cells, Mino. The assay is classed as cell-based, Human. In outline:
as §3

In assay [9] the test system is CCRF-CEM. In words: CCK-8 tumor cell proliferation, CCRF-CEM. The format is cell-based, Human. As to conditions: Homo sapiens, CCRF-CEM, read-out: IC50 inhibiting proliferation of tumor cells, CCRF-CEM. Put shortly:
as §3

In assay [10] the test system is MM.1R. Put plainly: CCK-8 tumor cell proliferation, MM.1R. To be noted: read-out: IC50 inhibiting proliferation of tumor cells, MM.1R. The assay is classed as cell-based. As to the method: as §2
as §1, with “IC50 values of the compounds of the present disclosure (including the compounds in Tables 1 and 3, and compounds of examples) were measured using the Meilun Cell Counting Kit-8 kit from Dalian Meilun Biotech Co., Ltd. Assay details are as follows: tumor cells were seeded in a 96-well plate at a density listed in Table 5. After 24” for “After 24”

Assay [11] deals with LNcap. Put plainly: CCK-8 tumor cell proliferation, LNcap. The assay is classed as cell-based, Human. To be noted: Homo sapiens; Table 19, IRAK4 inhibitor based; Lncap; read-out: IC50 inhibiting proliferation of tumor cells, Lncap. As to the method:
as §2
as §1, with “IC50 values of the compounds of the present disclosure (including the compounds in Tables 1 and 3, and compounds of examples) were measured using the Meilun Cell Counting Kit-8 kit from Dalian Meilun Biotech Co., Ltd. Assay details are as follows: tumor cells were seeded in a 96-well plate at a density listed in Table 5. After 24” for “After 24”

Where [12] appears, read: Table 19, IRAK4 inhibitor based, Hep3B2.7-1, read-out: IC50 inhibiting proliferation of tumor cells, Hep3B2.7-1.
[13] abbreviates: Table 19, IRAK4 inhibitor based.
The mark [14] stands for this setting: Table 22, NTRK inhibitor based, HEP3B2.7-1, read-out: IC50 inhibiting proliferation of tumor cells, HEP3B2.7-1.

Where two headings read alike, the source gives them in different places.

As for `COc1cc2ncnc(Nc3cccc(Cl)c3F)c2cc1OCc1ccc2c(c1)CN(C1CCC(=O)NC1=O)C2=O` (centres unmarked) [GT-03325, 3-(5-(((4-((3-chloro-2-fluorophenyl)amino)-7-methoxyquinazolin-6-yl)oxy)methyl)-1-oxoisoindolin-2-yl)piperidine-2,6-dione], the “IC50 for inhibiting the proliferation of tumor cells, HCC827” value in assay [1] was “A+”.
On to `O=C1CCC(N2Cc3cc(CN4CCN(c5ccc(-n6cc(NC(=O)c7coc(-c8ccnc(NCC(F)(F)F)c8)n7)c(C(F)F)n6)cc5)CC4)ccc3C2=O)C(=O)N1` (centres unmarked) [GT-04267, N-(3-(difluoromethyl)-1-(4-(4-((2-(2,6-dioxopiperidin-3-yl)-1-oxoisoindolin-5-yl)methyl)piperazin-1-yl)phenyl)-1H-pyrazol-4-yl)-2-(2-((2,2,2-trifluoroethyl)amino)pyridin-4-yl)oxazole-4-carboxamide], for which the IC50 lay in the range of 100 to 500 nM in assay [2] (setting [12]), 500 to 1000 nM in [3] (setting [13]) and 100 to 500 nM in assay [4] (setting [13]).
Turning to `COc1cc(N2CCC(N(C)Cc3cc4c(cc3F)C(=O)N(C3CCC(=O)NC3=O)C4)CC2)ccc1Nc1ncc(Cl)c(Nc2ccccc2P(C)(C)=O)n1` (centres unmarked) [GT-03601, 3-(5-(((1-(4-((5-chloro-4-((2-(dimethylphosphoryl)phenyl)amino)pyrimidin-2-yl)amino)-3-methoxyphenyl)piperidin-4-yl)(methyl)amino)methyl)-6-fluoro-1-oxoisoindolin-2-yl)piperidine-2,6-dione], the IC50 is 100 to 500 nM in [5]; under 50 nM in [6]; 100 to 500 nM in assay [7]; 5000 to 10000 nM in assay [8]; 100 to 500 nM in [1].
`O=C1CCC(N2Cc3cc(CN4CCN(c5ccc(-n6cc(NC(=O)c7coc(-c8ccnc(NCC(F)(F)F)c8)n7)c(C(F)F)n6)cc5)CC4)c(F)cc3C2=O)C(=O)N1` (centres unmarked) [GT-04269, N-(3-(difluoromethyl)-1-(4-(4-((2-(2,6-dioxopiperidin-3-yl)-6-fluoro-1-oxoisoindolin-5-yl)methyl)piperazin-1-yl)phenyl)-1H-pyrazol-4-yl)-2-(2-((2,2,2-trifluoroethyl)amino)pyridin-4-yl)oxazole-4-carboxamide]: the IC50 in assay [2] (setting [12]) is under 50 nM; in assay [3] (setting [13]) it was 50 to 100 nM; in assay [4] (setting [13]), 50 to 100 nM; in assay [9] (setting [13]), 100 to 500 nM; in [10] (setting [13]), 100 to 500 nM; in [11] it was 100 to 500 nM.
Consider `O=C1CCC(N2Cc3cc(CN4CCN(c5cccc(-c6cnn7ccc(N8CCC[C@@H]8c8cc(F)ccc8F)nc67)n5)CC4)ccc3C2=O)C(=O)N1` (stereo partly drawn) [GT-04262, 3-(5-((4-(6-(5-((R)-2-(2,5-difluorophenyl)pyrrolidin-1-yl)pyrazolo[1,5-a]pyrimidin-3-yl)pyridin-2-yl)piperazin-1-yl)methyl)-1-oxoisoindolin-2-yl)piperidine-2,6-dione], for which the IC50 in assay [2] (setting [14]) was under 50 nM; in assay [3] (Table 22, NTRK inhibitor based), 100 to 500 nM; in assay [4] (Table 22, NTRK inhibitor based) it was 100 to 500 nM; in [9] (Table 22, NTRK inhibitor based), under 50 nM; in assay [10] (Table 22, NTRK inhibitor based) it was under 50 nM.
Consider `CCc1cc2c(cc1N1CCC(N(C)Cc3ccc4c(c3)CN(C3CCC(=O)NC3=O)C4=O)CC1)C(C)(C)c1[nH]c3cc(C#N)ccc3c1C2=O` (centres unmarked) [GT-03474, 8-(4-(((2-(2,6-dioxopiperidin-3-yl)-1-oxoisoindolin-5-yl)methyl)(methyl)amino)piperidin-1-yl)-9-ethyl-6,6-dimethyl-11-oxo-6,11-dihydro-5H-benzo[b]carbazole-3-carbonitrile], for which the IC50 in assay [5] was 500 to 1000 nM; in [6], under 50 nM; in assay [7], 1000 to 5000 nM; in assay [1], 1000 to 5000 nM.
With `O=C1CCC(N2Cc3c(ccc(CN4CCN(c5cccc(-c6cnn7ccc(N8CCC[C@@H]8c8cc(F)ccc8F)nc67)n5)CC4)c3F)C2=O)C(=O)N1` (stereo partly drawn) [GT-04263, 3-(5-((4-(6-(5-((R)-2-(2,5-difluorophenyl)pyrrolidin-1-yl)pyrazolo[1,5-a]pyrimidin-3-yl)pyridin-2-yl)piperazin-1-yl)methyl)-4-fluoro-1-oxoisoindolin-2-yl)piperidine-2,6-dione], the IC50 is under 50 nM in [2] (setting [14]); 100 to 500 nM in [3] (Table 22, NTRK inhibitor based); 500 to 1000 nM in assay [4] (Table 22, NTRK inhibitor based); 50 to 100 nM in assay [9] (Table 22, NTRK inhibitor based); under 50 nM in assay [10] (Table 22, NTRK inhibitor based).
On to `O=C1CCC(N2C(=O)c3ccc(CN4CCN(c5ccc(-n6cc(NC(=O)c7coc(-c8ccnc(NCC(F)(F)F)c8)n7)c(C(F)F)n6)cc5)CC4)cc3C2=O)C(=O)N1` (centres unmarked) [GT-04272, N-(3-(difluoromethyl)-1-(4-(4-((2-(2,6-dioxopiperidin-3-yl)-1,3-dioxoisoindolin-5-yl)methyl)piperazin-1-yl)phenyl)-1H-pyrazol-4-yl)-2-(2-((2,2,2-trifluoroethyl)amino)pyridin-4-yl)oxazole-4-carboxamide], for which the IC50 lay within 500 to 1000 nM in [2] (setting [12]); 1000 to 5000 nM in [3] (setting [13]); 50 to 100 nM in [4] (setting [13]); 500 to 1000 nM in assay [10] (setting [13]); 100 to 500 nM in assay [11].
As for `O=C1CCC(N2Cc3c(CN4CCN(c5ccc(-n6cc(NC(=O)c7coc(-c8ccnc(NCC(F)(F)F)c8)n7)c(C(F)F)n6)cc5)CC4)cccc3C2=O)C(=O)N1` (centres unmarked) [GT-04271, N-(3-(difluoromethyl)-1-(4-(4-((2-(2,6-dioxopiperidin-3-yl)-1-oxoisoindolin-4-yl)methyl)piperazin-1-yl)phenyl)-1H-pyrazol-4-yl)-2-(2-((2,2,2-trifluoroethyl)amino)pyridin-4-yl)oxazole-4-carboxamide], the IC50 in assay [2] (setting [12]) is under 50 nM; in [3] (setting [13]), under 50 nM; in [4] (setting [13]) it was under 50 nM; in assay [9] (setting [13]), under 50 nM; in assay [10] (setting [13]), under 50 nM; in [11] it was 50 to 100 nM.
For `C=CC(=O)Nc1cc(Nc2nccc(-c3cn(C)c4ccccc34)n2)c(OC)cc1N(C)CCN(C)C` [osimertinib, Osimertinib, reference compound], the “IC50 for inhibiting the proliferation of tumor cells, HCC827” value in assay [1] was “A+”.
